Assay results as given in patent US20070128217A1 (priority 2003, published 2007).

Key:
[1] = test system: recombinant human anti-SARS-CoV antibody 03-018; assay type: binding; parameters: Binding of antibody 03-018 to linear peptides of the N protein of SARS-CoV Urbani / Binding of antibody 03-018 to looped/cyclic peptides of the N protein of SARS-CoV Urbani: unit not given here
[2] = test system: antibodies in sera from SARS patients (sera 1a, 1b, 2, 6, 37, 62, London, SARS-yellow, SARS-green); assay type: binding, human; parameters: Binding of serum 6 to linear peptides of protein X1 of SARS-CoV Urbani / Binding of serum 37 to linear peptides of protein X1 of SARS-CoV Urbani / Binding of serum 6 to looped/cyclic peptide (PEPSCAN-ELISA) / Binding of serum 37 to looped/cyclic peptide (PEPSCAN-ELISA) / Binding of serum 37 to looped/cyclic peptides of protein X1 of SARS-CoV Urbani / Binding of serum 6 to linear peptides of protein X2 / Binding of serum 37 to linear peptides of protein X2 / Binding of serum 37 to looped/cyclic peptides of protein X2 of SARS-CoV Urbani / Binding of serum 6 to linear peptides of protein M of SARS-CoV Urbani / Binding of serum 37 to linear peptides of protein M of SARS-CoV Urbani / Binding of serum 6 to looped/cyclic peptides of protein M of SARS-CoV Urbani / Binding of serum 37 to looped/cyclic peptides of protein M of SARS-CoV Urbani / Binding of serum 6 to linear peptides of protein X3 of SARS-CoV Urbani / Binding of serum 37 to linear peptides of protein X3 of SARS-CoV Urbani / Binding of serum 37 to looped/cyclic peptides of protein X3 of SARS-CoV Urbani / Binding of serum 6 to linear peptides of protein X4 of SARS-CoV Urbani / Binding of serum 37 to linear peptides of protein X4 of SARS-CoV Urbani / Binding of serum 37 to looped/cyclic peptides of protein X4 of SARS-CoV Urbani / Binding of serum 6 to linear peptides of protein X5 of SARS-CoV Urbani / Binding of serum 37 to linear peptides of protein X5 of SARS-CoV Urbani / Binding of serum 37 to looped/cyclic peptides of protein X5 of SARS-CoV Urbani / Binding of serum 6 to linear peptides of protein N of SARS-CoV Urbani / Binding of serum 37 to linear peptides of protein N of SARS-CoV Urbani / Binding of serum 6 to linear peptide (PEPSCAN-ELISA) / Binding of serum 1a to looped/cyclic peptides of protein N of SARS-CoV Urbani / Binding of serum 1b to looped/cyclic peptides of protein N of SARS-CoV Urbani / Binding of serum 2 to looped/cyclic peptides of protein N of SARS-CoV Urbani / Binding of serum 6 to looped/cyclic peptides of protein N of SARS-CoV Urbani / Binding of serum 37 to looped/cyclic peptides of protein N of SARS-CoV Urbani / Binding of serum 62 to looped/cyclic peptides of protein N of SARS-CoV Urbani / Binding of serum London to looped/cyclic peptides of protein N of SARS-CoV Urbani / Binding of serum SARS-green to looped/cyclic peptides of protein N of SARS-CoV Urbani: unit not given here
[3] = test system: rabbit serum obtained by immunizing a rabbit with the SARS-CoV strain Frankfurt 1; assay type: binding; parameters: Binding of a rabbit serum to linear peptides / Binding of a rabbit serum to looped peptides / Rabbit serum linear peptides / Rabbit serum looped peptides / Binding of a rabbit serum to linear peptides of protein N of SARS-CoV Urbani (Rabbit serum linear peptides) / Binding of a rabbit serum to looped/cyclic peptides of protein N of SARS-CoV Urbani (Rabbit serum looped peptides): unit not given here
[4] = test system: control sera (pooled serum of ten healthy LUMC hospital workers; commercial negative donor pooled serum from the Dutch bloodbank); assay type: binding, human; parameters: Binding of Control serum LUMC to linear peptides / Binding of Control serum Blood-bank to linear peptides / Binding of Control serum LUMC to looped peptides / Binding of Control Serum Blood-Bank to Looped peptides / Binding of Control serum LUMC to linear peptides of the protein M of SARS-CoV Urbani / Binding of Control serum Blood-bank to linear peptides of the protein M of SARS-CoV Urbani / Binding of Control serum LUMC to looped peptides of the protein M of SARS-CoV Urbani / Binding of Control Serum Blood-Bank to Looped peptides of the protein M of SARS-CoV Urbani: unit not given here

| Sequence | Binding of antibody 03-018 to linear peptides of the N protein of SARS-CoV Urbani [1] | Binding of antibody 03-018 to looped/cyclic peptides of the N protein of SARS-CoV Urbani [1] | Binding of serum 1a to looped/cyclic peptides of protein N of SARS-CoV Urbani [2] | Binding of serum 1b to looped/cyclic peptides of protein N of SARS-CoV Urbani [2] | Binding of serum 2 to looped/cyclic peptides of protein N of SARS-CoV Urbani [2] | Binding of serum 6 to looped/cyclic peptides of protein N of SARS-CoV Urbani [2] | Binding of serum 37 to looped/cyclic peptides of protein N of SARS-CoV Urbani [2] | Binding of serum 62 to looped/cyclic peptides of protein N of SARS-CoV Urbani [2] | Binding of serum London to looped/cyclic peptides of protein N of SARS-CoV Urbani [2] | Binding of serum SARS-green to looped/cyclic peptides of protein N of SARS-CoV Urbani [2] | Binding of serum SARS-yellow to looped/cyclic peptides of protein N of SARS-CoV Urbani [2] | Binding of a rabbit serum to linear peptides of protein N of SARS-CoV Urbani (Rabbit serum linear peptides) [3] | Binding of a rabbit serum to looped/cyclic peptides of protein N of SARS-CoV Urbani (Rabbit serum looped peptides) [3] | Binding of Control Serum Blood-Bank to Looped peptides [4] | Binding of Control serum Blood-bank to linear peptides [4] | Binding of Control serum LUMC to linear peptides [4] | Binding of Control serum LUMC to looped peptides [4] | Binding of serum 1a to linear peptides of protein N of SARS-CoV Urbani [2] | Binding of serum 1b to linear peptides of protein N of SARS-CoV Urbani [2] | Binding of serum 2 to linear peptides of protein N of SARS-CoV Urbani [2] | other results |
| --- | --- | --- | --- | --- | --- | --- | --- | --- | --- | --- | --- | --- | --- | --- | --- | --- | --- | --- | --- | --- | --- |
| RGPEQTQGNFGDQDL | 0.1 | 0.2 | 0.4 | 0.4 | 0.4 | 0.2 | 0.6 | 0.5 | 0.4 | 0.6 | 0.6 | 0.2 | 0.3 | 0.4 | 0.7 | 0.7 | 0.6 |  |  |  | Recognition of the peptide by sera of SARS-CoV infected individuals, and form (linear, looped/cyclic) in which it is recognized [2]: recognized in linear form |
| RGQGVPINTNSGPDD | 0.1 | 0.2 | 0.2 | 0.1 | 0.2 | 0.1 | 0.3 | 0.2 | 0.2 | 0.2 | 0.0 | 0.1 | 0.0 | 0.4 | 0.5 | 0.5 | 0.4 | 0.2 | 0.1 | 0.1 | Binding of serum 6 to linear peptides of protein N of SARS-CoV Urbani [2]: 0.1; Binding of serum 37 to linear peptides of protein N of SARS-CoV Urbani [2]: 0.3; Binding of serum 62 to linear peptides of protein N of SARS-CoV Urbani [2]: 0.4; Binding of serum London to linear peptides of protein N of SARS-CoV Urbani [2]: 0.4; Binding of serum SARS-green to linear peptides of protein N of SARS-CoV Urbani [2]: 0.4; Binding of serum SARS-yellow to linear peptides of protein N of SARS-CoV Urbani [2]: 0.6 |
| RLNQLESKVSGKGQQ | 0.1 | 0.2 | 0.4 | 0.3 | 0.5 | 0.4 | 0.6 | 0.7 | 0.4 | 0.4 | 0.8 | 0.2 | 0.6 | 0.6 | 0.8 | 0.7 | 0.7 |  |  |  | Binding of serum 1a to linear peptide (PEPSCAN-ELISA) [2]: 0.3; Binding of serum 1b to linear peptide (PEPSCAN-ELISA) [2]: 0.2; Binding of serum 2 to linear peptide (PEPSCAN-ELISA) [2]: 0.3; Binding of serum 6 to linear peptide (PEPSCAN-ELISA) [2]: 0.2; Binding of serum 37 to linear peptide (PEPSCAN-ELISA) [2]: 0.7; Binding of serum 62 to linear peptide (PEPSCAN-ELISA) [2]: 0.9; Binding of serum London to linear peptide (PEPSCAN-ELISA) [2]: 0.6; Binding of serum SARS-green to linear peptide (PEPSCAN-ELISA) [2]: 0.4; Binding of serum SARS-yellow to linear peptide (PEPSCAN-ELISA) [2]: 0.7 |
| RNGARPKQRRPQGLP | 0.1 | 0.3 | 0.2 | 0.1 | 0.3 | 0.2 | 0.5 | 0.4 | 0.4 | 0.3 | 0.2 | 0.1 | 0.2 | 0.5 | 0.8 | 0.6 | 0.6 | 0.2 | 0.1 | 0.2 | Binding of serum 6 to linear peptides of protein N of SARS-CoV Urbani [2]: 0.2; Binding of serum 37 to linear peptides of protein N of SARS-CoV Urbani [2]: 0.6; Binding of serum 62 to linear peptides of protein N of SARS-CoV Urbani [2]: 0.6; Binding of serum London to linear peptides of protein N of SARS-CoV Urbani [2]: 0.5; Binding of serum SARS-green to linear peptides of protein N of SARS-CoV Urbani [2]: 0.4; Binding of serum SARS-yellow to linear peptides of protein N of SARS-CoV Urbani [2]: 0.5 |
| RNPNNNAATVLQLPQ | 0.1 | 0.2 | 0.4 | 0.4 | 0.7 | 0.3 | 0.8 | 0.9 | 0.6 | 0.6 | 0.4 | 0.1 | 0.8 | 0.8 | 0.7 | 0.7 | 0.9 | 0.2 | 0.1 | 0.3 | Binding of serum 6 to linear peptides of protein N of SARS-CoV Urbani [2]: 0.2; Binding of serum 37 to linear peptides of protein N of SARS-CoV Urbani [2]: 0.6; Binding of serum 62 to linear peptides of protein N of SARS-CoV Urbani [2]: 0.7; Binding of serum London to linear peptides of protein N of SARS-CoV Urbani [2]: 0.5; Binding of serum SARS-green to linear peptides of protein N of SARS-CoV Urbani [2]: 0.3; Binding of serum SARS-yellow to linear peptides of protein N of SARS-CoV Urbani [2]: 0.6 |
